Activity calls are given as the source filed them.
Key:
Staphylococcus aureus [1] = test: Bactericidal activity against methicillin-resistant Staphylococcus aureus ATCC 700699 assessed as reduction in bacterial CFU at 4 times MIC measured for 30 mins; type: functional
Staphylococcus aureus [2] = test: Antibacterial activity against mid-exponential growth phase of methicillin-resistant Staphylococcus aureus ATCC 700699 assessed as increase in cell lysis at 25 uM; type: functional, organism-based
Staphylococcus aureus [3] = test: Induction of membrane integrity impairment in methicillin-resistant Staphylococcus aureus ATCC 700699 at 20 uM measured for 30 mins by DiOC2(3) probe based fluorescence assay; type: functional, organism-based
Staphylococcus aureus [4] = test: Induction of membrane integrity impairment in methicillin-resistant Staphylococcus aureus ATCC 700699 at 10 uM measured for 3 hrs by PI staining based fluorescence assay; type: functional, organism-based

Measured: Activity

COc1c(N2C[C@@H]3CCCN[C@@H]3C2)c(F)cc2c(=O)c(C(=O)O)cn(C3CC3)c12
inactive: all assays above

Source: ChEMBL document CHEMBL4406882, “The plant-derived chalcone Xanthoangelol targets the membrane of Gram-positive bacteria” (Bioorg Med Chem, 2019)
